Measurements: patent US10183021B2, “sGC stimulators” (Ironwood Pharmaceuticals, Inc., priority 2013, dated 2019)
Read-outs that look alike come from different tables or passages of the source.

Molecular target: soluble guanylate cyclase (sGC) (Homo sapiens (Human), UniProt Q02108+Q02153)
Assay: sGC-HEK-cGMP assay, new protocol with DETA-NONOate, LC/MS detection (Example 2C)
Assay type: cell-based
Conditions: read-out: Absolute EC50 (uM) - binned

soluble guanylate cyclase (sGC), sequence (Q02153 whole entry): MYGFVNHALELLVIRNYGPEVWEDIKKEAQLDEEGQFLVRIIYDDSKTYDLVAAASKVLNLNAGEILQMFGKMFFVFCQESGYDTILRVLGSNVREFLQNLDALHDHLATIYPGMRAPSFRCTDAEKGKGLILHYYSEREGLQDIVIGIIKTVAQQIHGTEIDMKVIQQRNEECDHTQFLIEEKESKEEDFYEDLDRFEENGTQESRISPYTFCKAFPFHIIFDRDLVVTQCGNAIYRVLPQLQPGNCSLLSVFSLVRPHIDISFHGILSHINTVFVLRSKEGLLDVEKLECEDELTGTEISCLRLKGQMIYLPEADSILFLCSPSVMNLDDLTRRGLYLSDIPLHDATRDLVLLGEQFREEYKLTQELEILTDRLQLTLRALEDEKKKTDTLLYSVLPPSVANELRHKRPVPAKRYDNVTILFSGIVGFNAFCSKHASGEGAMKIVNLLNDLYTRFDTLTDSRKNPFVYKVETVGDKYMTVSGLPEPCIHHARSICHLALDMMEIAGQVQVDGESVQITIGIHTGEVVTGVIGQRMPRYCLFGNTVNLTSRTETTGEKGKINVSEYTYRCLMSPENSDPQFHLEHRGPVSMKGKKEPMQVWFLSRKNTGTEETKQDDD
soluble guanylate cyclase (sGC), sequence (Q02108 whole entry): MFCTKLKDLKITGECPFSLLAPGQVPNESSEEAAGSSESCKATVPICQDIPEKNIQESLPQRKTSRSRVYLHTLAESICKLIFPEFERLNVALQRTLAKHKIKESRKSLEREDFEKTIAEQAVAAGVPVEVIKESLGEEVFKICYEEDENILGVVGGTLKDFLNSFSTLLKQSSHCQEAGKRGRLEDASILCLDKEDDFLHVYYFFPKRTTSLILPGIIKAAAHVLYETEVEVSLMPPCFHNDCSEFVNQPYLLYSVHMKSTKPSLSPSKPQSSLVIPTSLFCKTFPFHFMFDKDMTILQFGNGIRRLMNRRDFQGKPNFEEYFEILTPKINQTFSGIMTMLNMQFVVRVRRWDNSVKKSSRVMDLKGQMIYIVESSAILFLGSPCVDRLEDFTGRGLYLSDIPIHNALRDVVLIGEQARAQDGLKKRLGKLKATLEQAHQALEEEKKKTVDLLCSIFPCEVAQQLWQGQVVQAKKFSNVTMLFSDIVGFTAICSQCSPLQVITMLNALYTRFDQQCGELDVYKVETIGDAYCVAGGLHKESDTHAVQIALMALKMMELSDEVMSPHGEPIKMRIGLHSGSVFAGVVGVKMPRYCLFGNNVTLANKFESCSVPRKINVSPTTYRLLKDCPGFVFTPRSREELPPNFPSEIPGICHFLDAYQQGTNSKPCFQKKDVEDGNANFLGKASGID

| SMILES | EC50 | EC50 (HEK293 cells, 10 μM DETA-NONOate, LC/MS detection, concentration eliciting 50% of high control response (30 μM I-329)) |
| --- | --- | --- |
| NC(=O)C(Nc1nc(-c2cc(-c3ccon3)n(Cc3ccccc3F)n2)ncc1F)C(F)(F)F (stereo not drawn) [Compound I-540] | 0.101 to 1 µM |  |
| COC(=O)Nc1nc(-c2cc(-c3ccon3)n(Cc3ccccc3F)n2)ncc1[N+](=O)[O-] [Compound I-541] | > 1 µM |  |
| COC(=O)Nc1nc(-c2cc(-c3ccon3)n(Cc3ccccc3F)n2)ncc1N [Compound I-542] | 0.101 to 1 µM |  |
| CS(=O)(=O)NCC(=O)Nc1ccnc(-c2cc(-c3ccon3)n(Cc3ccccc3F)n2)n1 [Compound I-543] | 0.101 to 1 µM |  |
| CS(=O)(=O)NCCC(Nc1nc(-c2cc(-c3ccon3)n(Cc3ccccc3F)n2)ncc1F)C(F)(F)F (stereo not drawn) [Compound I-544] | < 0.1 µM |  |
| CS(=O)(=O)C1(CNc2nc(-c3cc(-c4ccon4)n(Cc4ccccc4F)n3)ncc2F)CC1 [Compound I-545] | < 0.1 µM |  |
| CS(=O)(=O)NC(=O)CNc1nc(-c2cc(-c3ccon3)n(Cc3ccccc3F)n2)ncc1F [Compound I-546] | > 1 µM |  |
| COCCC(=O)Nc1ccnc(-c2cc(-c3ccon3)n(Cc3ccccc3F)n2)n1 [Compound I-547] | 0.101 to 1 µM |  |
| Cc1ccc(S(=O)(=O)NC(C)C(=O)Nc2ccnc(-c3cc(-c4ccon4)n(Cc4ccccc4F)n3)n2)cc1 (stereo not drawn) [Compound I-548] | > 1 µM |  |
| O=C(Nc1ccnc(-c2cc(-c3ccon3)n(Cc3ccccc3F)n2)n1)c1cscn1 [Compound I-549] | > 1 µM |  |
| O=C(Nc1ccnc(-c2cc(-c3ccon3)n(Cc3ccccc3F)n2)n1)c1ccc[nH]1 [Compound I-550] | > 1 µM |  |
| N#CC1(C(=O)Nc2ccnc(-c3cc(-c4ccon4)n(Cc4ccccc4F)n3)n2)CC1 [Compound I-551] | > 1 µM |  |
| O=C(Nc1ccnc(-c2cc(-c3ccon3)n(Cc3ccccc3F)n2)n1)c1cncs1 [Compound I-552] | > 1 µM |  |
| O=C(Nc1ccnc(-c2cc(-c3ccon3)n(Cc3ccccc3F)n2)n1)c1cccc(=O)[nH]1 [Compound I-553] | > 1 µM |  |
| COc1cc(C(=O)Nc2ccnc(-c3cc(-c4ccon4)n(Cc4ccccc4F)n3)n2)on1 [Compound I-554] | > 1 µM |  |
| O=C(Nc1ccnc(-c2cc(-c3ccon3)n(Cc3ccccc3F)n2)n1)c1ccncn1 [Compound I-555] | > 1 µM |  |
| O=C(Nc1ccnc(-c2cc(-c3ccon3)n(Cc3ccccc3F)n2)n1)c1cnco1 [Compound I-556] | > 1 µM |  |
| O=C(Nc1ccnc(-c2cc(-c3ccon3)n(Cc3ccccc3F)n2)n1)c1cocn1 [Compound I-557] |  | > 1 µM |
| O=C(Nc1ccnc(-c2cc(-c3ccon3)n(Cc3ccccc3F)n2)n1)C1CC1 [Compound I-558] | 0.101 to 1 µM |  |
| CO[C@H](C(=O)Nc1ccnc(-c2cc(-c3ccon3)n(Cc3ccccc3F)n2)n1)c1ccccc1 [Compound I-559] | 0.101 to 1 µM |  |
| O=C(Nc1ccnc(-c2cc(-c3ccon3)n(Cc3ccccc3F)n2)n1)c1ccco1 [Compound I-560] | > 1 µM |  |
| O=C(Nc1ccnc(-c2cc(-c3ccon3)n(Cc3ccccc3F)n2)n1)c1cccs1 [Compound I-561] | > 1 µM |  |
| CCOCC(=O)Nc1ccnc(-c2cc(-c3ccon3)n(Cc3ccccc3F)n2)n1 [Compound I-562] | 0.101 to 1 µM |  |
| CS(=O)(=O)CC(=O)Nc1ccnc(-c2cc(-c3ccon3)n(Cc3ccccc3F)n2)n1 [Compound I-563] | > 1 µM |  |

| SMILES | EC50 | EC50 (HEK293 cells, 10 μM DETA-NONOate, LC/MS detection, concentration eliciting 50% of high control response (30 μM I-329)) |
| --- | --- | --- |
| O=C(Nc1ccnc(-c2cc(-c3ccon3)n(Cc3ccccc3F)n2)n1)c1cc(C2CC2)n[nH]1 [Compound I-564] | > 1 µM |  |
| CC(=O)OC(C(=O)Nc1ccnc(-c2cc(-c3ccon3)n(Cc3ccccc3F)n2)n1)c1ccccc1 (stereo not drawn) [Compound I-565] | 0.101 to 1 µM |  |
| O=C(CO)N(CC(F)(F)F)c1nc(-c2cc(-c3ccon3)n(Cc3ccccc3F)n2)ncc1F [Compound I-566] | 0.101 to 1 µM |  |
| Fc1ccccc1Cn1nc(-c2ncc(F)c(NCC3(c4ncc[nH]4)CC3)n2)cc1-c1ccon1 [Compound I-567] | > 1 µM |  |
| COC(=O)NCC(Nc1nc(-c2cc(-c3ccon3)n(Cc3ccccc3F)n2)ncc1F)C(F)(F)F (stereo not drawn) [Compound I-568] | < 0.1 µM |  |
| CC1(C(=O)Nc2ccnc(-c3cc(-c4ccon4)n(Cc4ccccc4F)n3)n2)CC1 [Compound I-569] | > 1 µM |  |
| O=C(Nc1ccnc(-c2cc(-c3ccon3)n(Cc3ccccc3F)n2)n1)C1CCCO1 (stereo not drawn) [Compound I-570] | 0.101 to 1 µM |  |
| Cc1cn(CC(=O)Nc2ccnc(-c3cc(-c4ccon4)n(Cc4ccccc4F)n3)n2)c(=O)[nH]c1=O [Compound I-571] | > 1 µM |  |
| COC(C(=O)Nc1ccnc(-c2cc(-c3ccon3)n(Cc3ccccc3F)n2)n1)(c1ccccc1)C(F)(F)F (stereo not drawn) [Compound I-572] | > 1 µM |  |
| CS(=O)(=O)CCC(=O)Nc1ccnc(-c2cc(-c3ccon3)n(Cc3ccccc3F)n2)n1 [Compound I-573] | 0.101 to 1 µM |  |
| O=C(Nc1ccnc(-c2cc(-c3ccon3)n(Cc3ccccc3F)n2)n1)C1CCOCC1 [Compound I-574] | 0.101 to 1 µM |  |
| O=C1O[C@@H](CO)CN1c1nc(-c2cc(-c3ccon3)n(Cc3ccccc3F)n2)ncc1F [Compound I-575] | < 0.1 µM |  |
| C[C@H](O)C(=O)Nc1ccnc(-c2cc(-c3ccon3)n(Cc3ccccc3F)n2)n1 [Compound I-576] | 0.101 to 1 µM |  |
| O=C(Nc1ccnc(-c2cc(-c3ccon3)n(Cc3ccccc3F)n2)n1)c1ccccc1O [Compound I-577] | 0.101 to 1 µM |  |
| Fc1ccccc1Cn1nc(-c2ncc(F)c(NC3CCOC3)n2)cc1-c1ccon1 (stereo not drawn) [Compound I-578] | < 0.1 µM |  |
| N#CCC(=O)Nc1ccnc(-c2cc(-c3ccon3)n(Cc3ccccc3F)n2)n1 [Compound I-579] | > 1 µM |  |
| CC(C)(C(=O)Nc1ccnc(-c2cc(-c3ccon3)n(Cc3ccccc3F)n2)n1)S(C)(=O)=O [Compound I-580] | 0.101 to 1 µM |  |
| NC(=O)CCNc1nc(-c2cc(-c3ccon3)n(Cc3ccccc3F)n2)ncc1F [Compound I-581] | < 0.1 µM |  |
| CC(C)(C(=O)Nc1nc(-c2cc(-c3ccon3)n(Cc3ccccc3F)n2)ncc1F)S(C)(=O)=O [Compound I-582] | > 1 µM |  |
| O=C(Nc1ccccc1)Nc1ccnc(-c2cc(-c3ccon3)n(Cc3ccccc3F)n2)n1 [Compound I-583] | > 1 µM |  |
| NC(=O)NCC(=O)Nc1ccnc(-c2cc(-c3ccon3)n(Cc3ccccc3F)n2)n1 [Compound I-584] | > 1 µM |  |
| CC(C)NC(=O)NCC(=O)Nc1ccnc(-c2cc(-c3ccon3)n(Cc3ccccc3F)n2)n1 [Compound I-585] | 0.101 to 1 µM |  |
| CN(C)S(=O)(=O)NCC(=O)Nc1ccnc(-c2cc(-c3ccon3)n(Cc3ccccc3F)n2)n1 [Compound I-586] | 0.101 to 1 µM |  |
| CC(C(=O)Nc1ccnc(-c2cc(-c3ccon3)n(Cc3ccccc3F)n2)n1)S(C)(=O)=O (stereo not drawn) [Compound I-587] | 0.101 to 1 µM |  |

| SMILES | EC50 | EC50 (HEK293 cells, 10 μM DETA-NONOate, LC/MS detection, concentration eliciting 50% of high control response (30 μM I-329)) |
| --- | --- | --- |
| CS(=O)(=O)CCC(Nc1nc(-c2cc(-c3ccon3)n(Cc3ccccc3F)n2)ncc1F)C(F)(F)F (stereo not drawn) [Compound I-588] | 0.101 to 1 µM |  |
| CC(C(=O)Nc1nc(-c2cc(-c3ccon3)n(Cc3ccccc3F)n2)ncc1F)S(C)(=O)=O (stereo not drawn) [Compound I-589] | 0.101 to 1 µM |  |
| NC(=O)C1CC(=O)N(c2nc(-c3cc(-c4ccon4)n(Cc4ccccc4F)n3)ncc2F)C1 (stereo not drawn) [Compound I-590] | > 1 µM |  |
| CCOC(=O)C1(C)CCN(c2nc(-c3cc(-c4ccon4)n(Cc4ccccc4F)n3)ncc2F)C1=O (stereo not drawn) [Compound I-591] | 0.101 to 1 µM |  |
| O=C(CS(=O)(=O)c1ccccc1)Nc1ccnc(-c2cc(-c3ccon3)n(Cc3ccccc3F)n2)n1 [Compound I-592] | > 1 µM |  |
| O=C(CS(=O)(=O)c1ccc(Cl)cc1)Nc1ccnc(-c2cc(-c3ccon3)n(Cc3ccccc3F)n2)n1 [Compound I-593] | > 1 µM |  |
| CC1(C(=O)Nc2ccnc(-c3cc(-c4ccon4)n(Cc4ccccc4F)n3)n2)Cc2ccccc2S1(=O)=O (stereo not drawn) [Compound I-594] | > 1 µM |  |
| O=S(=O)(CCC(F)(F)F)Nc1cnc(-c2cc(-c3ccon3)n(Cc3ccccc3F)n2)nc1 [Compound I-595] | 0.101 to 1 µM |  |
| O=C(CN1C(=O)c2ccccc2C1=O)Nc1ccnc(-c2cc(-c3ccon3)n(Cc3ccccc3F)n2)n1 [Compound I-596] | > 1 µM |  |
| O=C(Cc1ccccc1)NCC(=O)Nc1ccnc(-c2cc(-c3ccon3)n(Cc3ccccc3F)n2)n1 [Compound I-597] | > 1 µM |  |
| O=C(CNC(=O)OCc1ccccc1)Nc1ccnc(-c2cc(-c3ccon3)n(Cc3ccccc3F)n2)n1 [Compound I-598] | > 1 µM |  |
| O=C(CN1Cc2ccccc2C1=O)Nc1ccnc(-c2cc(-c3ccon3)n(Cc3ccccc3F)n2)n1 [Compound I-599] | > 1 µM |  |
| O=C(CN1CCOC1=O)Nc1ccnc(-c2cc(-c3ccon3)n(Cc3ccccc3F)n2)n1 [Compound I-600] | 0.101 to 1 µM |  |
| O=C(Cn1cnc2ccccc2c1=O)Nc1ccnc(-c2cc(-c3ccon3)n(Cc3ccccc3F)n2)n1 [Compound I-601] | > 1 µM |  |
| O=C(CN1C(=O)c2ccccc2C1=O)NCC(=O)Nc1ccnc(-c2cc(-c3ccon3)n(Cc3ccccc3F)n2)n1 [Compound I-602] | > 1 µM |  |
| COC(=O)NCC(=O)Nc1ccnc(-c2cc(-c3ccon3)n(Cc3ccccc3F)n2)n1 [Compound I-603] | 0.101 to 1 µM |  |
| CC1(C(=O)O)CCN(c2nc(-c3cc(-c4ccon4)n(Cc4ccccc4F)n3)ncc2F)C1=O (stereo not drawn) [Compound I-604] | 0.101 to 1 µM |  |
| CC1(C(=O)NC2CC2)CCN(c2nc(-c3cc(-c4ccon4)n(Cc4ccccc4F)n3)ncc2F)C1=O (stereo not drawn) [Compound I-605] | 0.101 to 1 µM |  |
| CC1(C(N)=O)CCN(c2nc(-c3cc(-c4ccon4)n(Cc4ccccc4F)n3)ncc2F)C1=O (stereo not drawn) [Compound I-606] | 0.101 to 1 µM |  |
| O=S(=O)(Cc1ccc(F)cc1)Nc1nc(-c2cc(-c3ccon3)n(Cc3ccccc3F)n2)ncc1F [Compound I-607] | 0.101 to 1 µM |  |
| Fc1ccccc1Cn1nc(-c2ncc(F)c(NCc3nnc(C(F)(F)F)o3)n2)cc1-c1ccon1 [Compound I-608] | < 0.1 µM |  |
| O=S(=O)(CC(F)(F)F)Nc1nc(-c2cc(-c3ccon3)n(Cc3ccccc3F)n2)ncc1F [Compound I-609] | > 1 µM |  |
| O=S(=O)(Nc1nc(-c2cc(-c3ccon3)n(Cc3ccccc3F)n2)ncc1F)C1CC1 [Compound I-610] | 0.101 to 1 µM |  |
| CCCS(=O)(=O)Nc1nc(-c2cc(-c3ccon3)n(Cc3ccccc3F)n2)ncc1F [Compound I-611] | 0.101 to 1 µM |  |
